Data: patent US6737383B1, “Herbicidal oxadiazolidines” (priority 1999, dated 2004)

Tests used:
bedstraw = assay: Test B pre/postemergence bedstraw; assay type: in vivo, Galium aparine; details: Preemergence; for Bedstraw plant response rating: scale of 0 to 10 where 0 is no effect and 10 is complete control
Method in brief: (§1)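 Test chemicals in a non-phytotoxic solvent mixture with surfactant were sprayed preemergence onto planted seeds and postemergence onto plants 2 to 18 cm tall (1- to 4-leaf stage). After twelve to sixteen days in a greenhouse, injury was visually rated against untreated controls from 0 (no effect) to 10 (complete control).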

blackgrass = assay: Test B pre/postemergence blackgrass; assay type: in vivo, Alopecurus myosuroides
Method in brief: as §1

surinam grass = assay: Test B pre/postemergence surinam grass; assay type: in vivo, Brachiaria decumbens
Method in brief: as §1

cocklebur = assay: Test B pre/postemergence cocklebur; assay type: in vivo, Xanthium strumarium; details: for Cocklebur plant response rating: scale of 0 to 10 where 0 is no effect and 10 is complete control
Method in brief: as §1

corn = assay: Test B pre/postemergence corn; assay type: in vivo, Zea mays; details: for Corn plant response rating: scale of 0 to 10 where 0 is no effect and 10 is complete control
Method in brief: as §1

crabgrass = assay: Test B pre/postemergence crabgrass; assay type: in vivo, Digitaria sanguinalis; details: for Crabgrass plant response rating: scale of 0 to 10 where 0 is no effect and 10 is complete control
Method in brief: as §1

giant foxtail = assay: Test B pre/postemergence giant foxtail; assay type: in vivo, Setaria faberii; details: for Giant foxtail plant response rating: scale of 0 to 10 where 0 is no effect and 10 is complete control
Method in brief: as §1

morningglory = assay: Test B pre/postemergence morningglory; assay type: in vivo, Ipomoea hederacea; details: for Morningglory plant response rating: scale of 0 to 10 where 0 is no effect and 10 is complete control
Method in brief: as §1

pigweed = assay: Test B pre/postemergence pigweed; assay type: in vivo, Amaranthus retroflexus; details: for Redroot pigweed plant response rating: scale of 0 to 10 where 0 is no effect and 10 is complete control
Method in brief: as §1

rape = assay: Test B pre/postemergence rape; assay type: in vivo, Brassica napus; details: for Rape plant response rating: scale of 0 to 10 where 0 is no effect and 10 is complete control
Method in brief: as §1

soybean = assay: Test B pre/postemergence soybean; assay type: in vivo, Glycine max; details: for Soybean plant response rating: scale of 0 to 10 where 0 is no effect and 10 is complete control
Method in brief: as §1

velvetleaf = assay: Test B pre/postemergence velvetleaf; assay type: in vivo, Abutilon theophrasti; details: for Velvetleaf plant response rating: scale of 0 to 10 where 0 is no effect and 10 is complete control
Method in brief: as §1

wheat = assay: Test B pre/postemergence wheat; assay type: in vivo, Triticum aestivum; details: for Wheat plant response rating: scale of 0 to 10 where 0 is no effect and 10 is complete control
Method in brief: as §1

wild oat = assay: Test B pre/postemergence wild oat; assay type: in vivo, Avena fatua; details: for Wild oats plant response rating: scale of 0 to 10 where 0 is no effect and 10 is complete control
Method in brief: as §1

purple nutsedge = assay: Test B pre/postemergence purple nutsedge; assay type: in vivo, Cyperus rotundus; details: for Nutsedge plant response rating: scale of 0 to 10 where 0 is no effect and 10 is complete control
Method in brief: as §1

[1] = Postemergence, Rate 125 g/ha, scale 0 to 10, 0 is no effect, 10 is complete control
[2] = Preemergence, Rate 62 g/ha, scale 0 to 10 (0 no effect, 10 complete control)
[3] = Preemergence, Rate 250 g/ha, scale of 0 to 10 where 0 is no effect and 10 is complete control
[4] = Preemergence, Rate 500 g/ha, scale of 0 to 10 where 0 is no effect and 10 is complete control
[5] = Rate 62 g/ha, Postemergence, scale of 0 to 10 where 0 is no effect and 10 is complete control
[6] = Rate 250 g/ha, Postemergence, scale of 0 to 10 where 0 is no effect and 10 is complete control
[7] = Rate 500 g/ha, Postemergence, scale 0 to 10, 0 no effect, 10 complete control

CCC(CC)n1c(=O)on(C(=O)N(c2ccccc2)C(C)C)c1=O [Compound 354]
Plant response rating, Bedstraw (bedstraw; Rate 62 g/ha, scale 0 to 10 (0 no effect, 10 complete control)): 0
Bedstraw plant response rating (0 to 10 scale) (bedstraw; Rate 125 g/ha): 0
Bedstraw plant response rating (bedstraw; Rate 250 g/ha): 0
Bedstraw plant response rating (bedstraw; Rate 500 g/ha): 0
Plant response rating, Blackgrass (blackgrass; [1]): 5
Plant response rating, Blackgrass (blackgrass; [2]): 3
Blackgrass plant response rating (0 to 10 scale) (blackgrass; Preemergence, Rate 125 g/ha): 4
Blackgrass plant response rating (blackgrass; [3]): 8
Blackgrass plant response rating (blackgrass; [4]): 9
Blackgrass plant response rating (blackgrass; [5]): 3
Plant response rating, Blackgrass (blackgrass; [6]): 7
Plant response rating, Blackgrass (blackgrass; [7]): 9
Plant response rating, B. signalgrass (surinam grass; [1]): 0
Plant response rating, B. signalgrass (surinam grass; [2]): 1
B. signalgrass plant response rating (0 to 10 scale, 0 is no effect, 10 is complete control) (surinam grass; Preemergence, Rate 125 g/ha): 5
B. signalgrass plant response rating (surinam grass; [3]): 5
B. signalgrass plant response rating (surinam grass; [4]): 5
B. signalgrass plant response rating (surinam grass; [5]): 0
Plant response rating, B. signalgrass (surinam grass; [6]): 0
Plant response rating, B. signalgrass (surinam grass; [7]): 2
Plant response rating, Cocklebur (cocklebur; [1]): 0
Plant response rating, Cocklebur (cocklebur; [2]): 0
Cocklebur plant response rating (0 to 10 scale) (cocklebur; Preemergence, Rate 125 g/ha): 0
Cocklebur plant response rating (cocklebur; Preemergence, Rate 250 g/ha): 0
Cocklebur plant response rating (cocklebur; Rate 62 g/ha, Postemergence): 0
Plant response rating, Cocklebur (cocklebur; [7]): 1
Plant response rating, Corn (corn; [1]): 0
Plant response rating, Corn (corn; [2]): 0
Corn plant response rating (0 to 10 scale) (corn; Preemergence, Rate 125 g/ha): 0
Corn plant response rating (corn; Preemergence, Rate 250 g/ha): 3
Corn plant response rating (corn; Preemergence, Rate 500 g/ha): 6
Corn plant response rating (corn; Rate 62 g/ha, Postemergence): 0
Plant response rating, Corn (corn; [7]): 0
Plant response rating, Crabgrass (crabgrass; [1]): 2
Plant response rating, Crabgrass (crabgrass; [2]): 9
Crabgrass plant response rating (0 to 10 scale) (crabgrass; Preemergence, Rate 125 g/ha): 9
Crabgrass plant response rating (crabgrass; Preemergence, Rate 250 g/ha): 9
Crabgrass plant response rating (crabgrass; Preemergence, Rate 500 g/ha): 10
Crabgrass plant response rating (crabgrass; Rate 62 g/ha, Postemergence): 0
Plant response rating, Crabgrass (crabgrass; [7]): 3
Plant response rating, Giant foxtail (giant foxtail; [1]): 4
Plant response rating, Giant foxtail (giant foxtail; [2]): 10
Giant foxtail plant response rating (0 to 10 scale) (giant foxtail; Preemergence, Rate 125 g/ha): 10
Giant foxtail plant response rating (giant foxtail; Preemergence, Rate 250 g/ha): 10
Giant foxtail plant response rating (giant foxtail; Preemergence, Rate 500 g/ha): 10
Giant foxtail plant response rating (giant foxtail; Rate 62 g/ha, Postemergence): 0
Plant response rating, Giant foxtail (giant foxtail; [7]): 9
Plant response rating, Morningglory (morningglory; [1]): 5
Plant response rating, Morningglory (morningglory; [2]): 0
Morningglory plant response rating (0 to 10 scale) (morningglory; Preemergence, Rate 125 g/ha): 0
Morningglory plant response rating (morningglory; Preemergence, Rate 250 g/ha): 0
Morningglory plant response rating (morningglory; Preemergence, Rate 500 g/ha): 0
Morningglory plant response rating (morningglory; Rate 62 g/ha, Postemergence): 0
Plant response rating, Morningglory (morningglory; [7]): 8
Plant response rating, Redroot pigweed (pigweed; [1]): 3
Plant response rating, Redroot pigweed (pigweed; [2]): 5
Redroot pigweed plant response rating (0 to 10 scale) (pigweed; Preemergence, Rate 125 g/ha): 7
Redroot pigweed plant response rating (pigweed; Preemergence, Rate 250 g/ha): 10
Redroot pigweed plant response rating (pigweed; Preemergence, Rate 500 g/ha): 10
Redroot pigweed plant response rating (pigweed; Rate 62 g/ha, Postemergence): 2
Plant response rating, Redroot pigweed (pigweed; [7]): 7
Plant response rating, Rape (rape; [1]): 0
Plant response rating, Rape (rape; [2]): 0
Rape plant response rating (0 to 10 scale) (rape; Preemergence, Rate 125 g/ha): 1
Rape plant response rating (rape; Preemergence, Rate 250 g/ha): 5
Rape plant response rating (rape; Preemergence, Rate 500 g/ha): 5
Rape plant response rating (rape; Rate 62 g/ha, Postemergence): 0
Plant response rating, Rape (rape; [7]): 4
Plant response rating, Soybean (soybean; [1]): 5
Plant response rating, Soybean (soybean; [2]): 0
Soybean plant response rating (0 to 10 scale) (soybean; Preemergence, Rate 125 g/ha): 0
Soybean plant response rating (soybean; Preemergence, Rate 250 g/ha): 0
Soybean plant response rating (soybean; Preemergence, Rate 500 g/ha): 1
Soybean plant response rating (soybean; Rate 62 g/ha, Postemergence): 3
Plant response rating, Soybean (soybean; [7]): 7
Plant response rating, Velvetleaf (velvetleaf; [1]): 0
Plant response rating, Velvetleaf (velvetleaf; [2]): 1
Velvetleaf plant response rating (0 to 10 scale) (velvetleaf; Preemergence, Rate 125 g/ha): 5
Velvetleaf plant response rating (velvetleaf; Preemergence, Rate 250 g/ha): 6
Velvetleaf plant response rating (velvetleaf; Preemergence, Rate 500 g/ha): 7
Velvetleaf plant response rating (velvetleaf; Rate 62 g/ha, Postemergence): 0
Plant response rating, Velvetleaf (velvetleaf; [7]): 2
Plant response rating, Wheat (wheat; [1]): 0
Plant response rating, Wheat (wheat; [2]): 0
Wheat plant response rating (0 to 10 scale) (wheat; Preemergence, Rate 125 g/ha): 0
Wheat plant response rating (wheat; Preemergence, Rate 250 g/ha): 0
Wheat plant response rating (wheat; Preemergence, Rate 500 g/ha): 2
Wheat plant response rating (wheat; Rate 62 g/ha, Postemergence): 0
Plant response rating, Wheat (wheat; [7]): 0
Plant response rating, Wild oats (wild oat; [1]): 0
Plant response rating, Wild oats (wild oat; [2]): 0
Wild oats plant response rating (0 to 10 scale) (wild oat; Preemergence, Rate 125 g/ha): 4
Wild oats plant response rating (wild oat; Preemergence, Rate 250 g/ha): 6
Wild oats plant response rating (wild oat; Preemergence, Rate 500 g/ha): 8
Wild oats plant response rating (wild oat; Rate 62 g/ha, Postemergence): 0
Plant response rating, Wild oats (wild oat; [7]): 3
Plant response rating, Nutsedge (purple nutsedge; [1]): 0
Plant response rating, Nutsedge (purple nutsedge; [2]): 0
Nutsedge plant response rating (0 to 10 scale) (purple nutsedge; Preemergence, Rate 125 g/ha): 0
Nutsedge plant response rating (purple nutsedge; Preemergence, Rate 250 g/ha): 0
Nutsedge plant response rating (purple nutsedge; Preemergence, Rate 500 g/ha): 0
Nutsedge plant response rating (purple nutsedge; Rate 62 g/ha, Postemergence): 0
Plant response rating, Nutsedge (purple nutsedge; [7]): 0
